Reference: US20210403465A1, “QUINAZOLINYL-INDAZOLE DERIVATIVES AND THEIR USE AS INHIBITORS OF HUMAN IMMUNODEFICIENCY VIRUS REPLICATION” (ViiV HEALTHCARE UK (NO.5) LIMITED, priority 2018, published 2021)

Assays:
[1] = system: recombinant NL4-3 virus (Renilla luciferase) in MT-2 cells; test: HIV cell culture assay (antiviral activity, luciferase readout in MT-2 cells); format: cell-based; details: NL43
Protocol: HIV cell culture assay—MT-2 cells, 293T cells and the proviral DNA clone of NL4-3 virus were obtained from the NIH AIDS Research and Reference Reagent Program. MT-2 cells were propagated in RPMI 1640 media supplemented with 10% heat inactivated fetal bovine serum (FBS), […]. The 293T cells were propagated in DMEM media supplemented with 10% heat inactivated FBS, […]. A recombinant NL4-3 proviral clone, in which a section of the nef gene was replaced with the Renilla luciferase gene, was used to make the reference virus used in these studies. The recombinant virus was prepared through transfection of the recombinant NL4-3 proviral clone into 293T cells using Transit-293 Transfection Reagent from Mirus Bio LLC (Madison, Wis.). Supernatant was harvested after 2-3 days and the amount of virus present was titered in MT-2 cells using luciferase enzyme activity as a marker by measuring luciferase enzyme activity. Luciferase was quantitated using the EnduRen Live Cell Substrate from Promega (Madison, Wis.). Antiviral activities of compounds toward the recombinant virus were quantified by measuring luciferase activity in MT-2 cells infected for 4-5 days with the recombinant virus in the presence of serial dilutions of the compound.
The 50% effective concentration (EC50) was calculated by using the exponential form of the median effect equation where (Fa)=1/[1+(ED50/drug conc.)m] (Johnson V A, Byington R T. Infectivity Assay. In Techniques in HIV Research. ed. Aldovini A, Walker B D. 71-76. New York: Stockton Press. 1990). The 50% inhibitory concentration (EC50) was calculated by using the exponential form of the median effect equation where percent inhibition=1/[1+(EC50/drug concentration)m], where m is a parameter that reflects the slope of the concentration-response curve.

[2] = Compound cytotoxicity, XTT-based colorimetric assay; format: cell-based; details: human; uninfected MT2 cells, day 4, XTT
Protocol: Compound cytotoxicity and the corresponding CC50 values were determined using the same protocol as described in the antiviral assay except that uninfected cells were used. Cytotoxicity was assessed on day 4 in uninfected MT2 cells by using a XTT (2,3-bis[2-Methoxy-4-nitro-5-sulfophenyl]-2H-tetrazolium-5-carboxyanilide inner salt)-based colorimetric assay (Sigma-Aldrich, St Louis, Mo.).

| SMILES | EC50 [1] [nM] | CC50 at 4 days [2] [nM] |
| --- | --- | --- |
| Cn1nc(NS(C)(=O)=O)c2c(Cl)ccc(-n3c([C@H](Cc4cc(F)cc(F)c4)NC(=O)Cn4nc(C(F)F)c5c4C(F)(F)[C@@H]4C[C@H]54)nc4cc(OCCn5cccn5)ccc4c3=O)c21 (atropisomer, axis not shown; (P)) [Example 13, N—((S)-1-(7-(2-(1H-pyrazol-1-yl)ethoxy)-(3P)-3-(4-chloro-1-methyl-3-(methylsulfonamido)-1H-indazol-7-yl)-4-oxo-3,4-dihydroquinazolin-2-yl)-2-(3,5-difluorophenyl)ethyl)-2-((3bS,4aR)-3-(difluoromethyl)-5,5-difluoro-3b,4,4a,5-tetrahydro-1H-cyclopropa[3,4]cyclopenta[1,2-c]pyrazol-1-yl)acetamide] | 0.032 | > 1000 |
| Cn1nc(NS(C)(=O)=O)c2c(Cl)ccc(-n3c([C@H](Cc4cc(F)cc(F)c4)NC(=O)Cn4nc(C(F)F)c5c4C(F)(F)[C@@H]4C[C@H]54)nc4cc(OCCC(C)(C)C(F)(F)F)ccc4c3=O)c21 (atropisomer, axis not shown; (P)) [Example 14, N—((S)-1-((3P)-3-(4-chloro-1-methyl-3-(methylsulfonamido)-1H-indazol-7-yl)-4-oxo-7-(4,4,4-trifluoro-3,3-dimethylbutoxy)-3,4-dihydroquinazolin-2-yl)-2-(3,5-difluorophenyl)ethyl)-2-((3bS,4aR)-3-(difluoromethyl)-5,5-difluoro-3b,4,4a,5-tetrahydro-1H-cyclopropa[3,4]cyclopenta[1,2-c]pyrazol-1-yl)acetamide] | 0.23 | > 500 |
| Cn1nc(NS(C)(=O)=O)c2c(Cl)ccc(-n3c([C@H](Cc4cc(F)cc(F)c4)NC(=O)Cn4nc(C(F)F)c5c4C(F)(F)[C@@H]4C[C@H]54)nc4cc(OCCOC(F)F)ccc4c3=O)c21 (atropisomer, axis not shown; (P)) [Example 15, N—((S)-1-((3P)-3-(4-chloro-1-methyl-3-(methylsulfonamido)-1H-indazol-7-yl)-7-(2-(difluoromethoxy)ethoxy)-4-oxo-3,4-dihydroquinazolin-2-yl)-2-(3,5-difluorophenyl)ethyl)-2-((3bS,4aR)-3-(difluoromethyl)-5,5-difluoro-3b,4,4a,5-tetrahydro-1H-cyclopropa[3,4]cyclopenta[1,2-c]pyrazol-1-yl)acetamide] | 0.051 | > 500 |
